Data set [1] relates to PfUGT50. Kind of data set: UDP-glucuronosyltransferase activity assay (HPLC) with recombinant PfUGT50. The settings on record: for relative activity to each substrate, taking the activity to scutellarein as 100%: 100 μM glycosyl acceptor substrate, 2 mM UDP-glucuronic acid, pH 7.5, 30° C., 30 minutes; for glucuronosyl transfer activity to glycosyl acceptor substrate (in words): standard reaction conditions. It counts as biochemical, Perilla frutescens. As to the method: (§1) Escherichia coli BL21 (DE3) was transformed with each plasmid obtained in 4-(1) above. The transformant obtained was shake cultured overnight at 37° C. in 4 ml of LB medium (10 g/l tryptone, 5 g/l yeast extract, 1 g/l NaCl) supplemented with 50 μg/ml of ampicillin. The culture broth, 4 ml, which reached the stationary phase, was inoculated into 80 ml of the medium with the same composition, followed by shake culture at 37° C. When the cell turbidity (OD600) reached approximately 0.5, 0.4 mM IPTG (isopropyl-β-thiogalactopyranoside) in a final concentration was added to the medium, followed by shake culture at 22° C. for 20 hours. All of the subsequent procedures were performed at 4° C. The transformants cultured were centrifuged (7,000×g, 15 mins.) to collect the cells, and 2 ml/g cell of Buffer S (20 mM sodium phosphate buffer (pH 7.4), 20 mM imidazole, 0.5 M NaCl, 14 mM β-mercaptoethanol) was added to the cells for suspension. Subsequently, ultrasonication was performed (15 secs.×8) followed by centrifugation (15,000×g, 10 mins.). To the supernatant obtained, 0.12% (w/v) polyethyleneimine in a final concentration was added to […], which was then allowed to stand for 30 minutes. The mixture was centrifuged (15,000×g, 10 mins.) and the supernatant was recovered as a crude enzyme solution. The crude enzyme solution was applied to His SpinTrap (GE Healthcare), which had been equilibrated with Buffer S, and centrifuged (70×g, 30 secs.). After washing with 600 μl of Buffer S, the protein bound to the column was stepwise eluted with 600 μl each of Buffer S containing 100, 200 and 500 mM imidazole. The buffer in each fraction eluted was replaced by 20 mM potassium phosphate buffer (pH 7.5) containing 14 mM β-mercaptoethanol, using Microcon YM-30 (Amicon). […] These fractions were mixed and used for analysis.
(§2) Standard reaction conditions are as follows. A reaction solution (2 mM UDP-glucuronic acid, 100 μM glycosyl acceptor substrate, 50 mM potassium phosphate buffer (pH 7.5), enzyme solution), 50 μl, was prepared and the enzyme solution was added to initiate the reaction at 30° C. for 30 minutes. The reaction was stopped by adding 50 μl of 0.5% TFA in CH3CN and provided for HPLC analysis. The conditions for HPLC are as follows: column, Develosil C30-UG-5 (4.6×150 mm); eluant A, 0.1% TFA/H2O; eluant B, 0.08% TFA/90% CH3CN; conditions A for elution (except for aurone, catechin, coumarine and phenylpropanoid), 0 min/5% B→18 min/100% eluant B'18.1 min/5% B→25 min/5% B; conditions B for elution (aurone, catechin, coumarine and phenylpropanoid), 0 min/5% B→20 min/50% eluant B→20.5 min/5% B→25 min/5% B; flow rate, 1 ml/min; detection wavelength: 280 and 350 nm.

Data set [2] concerns S1UGT. The experiment in a line: UDP-glucuronosyltransferase activity assay (HPLC) with recombinant S1UGT. In kind it is biochemical, Scutellaria laeteviolacea v. yakusimensis. The settings on record: for relative activity to each substrate, taking the activity to scutellarein as 100%: 100 μM glycosyl acceptor substrate, 2 mM UDP-glucuronic acid, pH 7.5, 30° C., 30 minutes; for glucuronosyl transfer activity to glycosyl acceptor substrate (in words): standard reaction conditions. As to the method:
as §1, §2

Data set [3] concerns AmUGTcg10. The experiment in a line: UDP-glucuronosyltransferase activity assay (HPLC) with recombinant AmUGTcg10. It counts as biochemical, Antirrhinum majus. To be noted: for relative activity to each substrate, taking the activity to scutellarein as 100%: 100 μM glycosyl acceptor substrate, 2 mM UDP-glucuronic acid, pH 7.5, 30° C., 30 minutes; for glucuronosyl transfer activity to glycosyl acceptor substrate (in words): standard reaction conditions. As to the method:
as §1, §2

Data set [4] concerns SiUGT23. The experiment in a line: UDP-glucuronosyltransferase activity assay (HPLC) with recombinant SiUGT23. The settings on record: for relative activity to each substrate, taking the activity to scutellarein as 100%: 100 μM glycosyl acceptor substrate, 2 mM UDP-glucuronic acid, pH 7.5, 30° C., 30 minutes; for glucuronosyl transfer activity to glycosyl acceptor substrate (in words): standard reaction conditions. In kind it is biochemical, Sesamum indicum. As to the method: as §2
cDNA containing full-length ORF of SiUGT23 derived from Sesamum indicum was amplified by a gene-specific primer set (SEQ ID NOs: 24 and 25). cDNA synthesized using total RNA extracted from sesame seeds was used as a template. SiUGT23 was incorporated into Escherichia coli expression vector as in UGT of Perilla frutescens, Scutellaria laeteviolacea v. yakusimensis and Antirrhinum majus in EXAMPLE 1 and recombinant SiUGT23 protein was expressed in the same way to assay the enzyme activity.

The nature of data set [5]: Analysis of pH and temperature characteristics of the recombinant enzymes. In kind it is biochemical. To be noted: for reaction optimum temperature: activity assay for 30 minutes, reaction temperature 10 to 55° C.; for activity in an acidic region: reaction pH dependency. As to the method: Temperature stability was analyzed as follows. An enzyme solution was treated at 15 to 55° C. for an hour and then cooled to 4° C. Using the sample cooled, the residual activity was determined under standard reaction conditions. After 167 mM final concentration of a buffer solution (pH 4, 4.5, 5, Acetate-NaOH; pH 5.5, 6, 6.5, 7, 7.5, NaH2PO4-NaOH; pH 8, 8.5, 9, Tris-HCl) was added to the enzyme solution, the mixture was treated at 4° C. for an hour and then 500 mM final concentration of potassium phosphate buffer (pH 7.5) was added thereto. Using the sample treated, the residual activity was determined under standard reaction conditions. The reaction was performed under standard reaction conditions where the reaction temperature was set at 10 to 55° C. to analyze the reaction temperature dependency. Reaction pH dependency was analyzed under standard reaction conditions using a buffer solution (pH 4, 4.5, 5, Acetate-NaOH; pH 5.5, 6, 6.5, 7, 7.5, NaH2PO4—NaOH; pH 8, 8.5, 9, Tris-HCl) in place of potassium phosphate buffer (pH 7.5). […] PfUGT50 was stable at 30° C. or lower (an hour, pH 7.5) and the reaction optimum temperature was 30° C. in the activity assay for 30 minutes. […] This enzyme was stable at 40° C. or lower (an hour, pH 7.5) and the reaction optimum temperature was 35° C. in the activity assay for 30 minutes. […] This enzyme was stable at 30° C. or lower (an hour, pH 7.5) and the reaction optimum temperature was 45° C. in the activity assay for 30 minutes. These properties were similar to known GT involved in plant secondary metabolism.

With `O=c1cc(-c2cc(O)c(O)c(O)c2)oc2cc(O)cc(O)c12` [tricetin], the “relative activity to each substrate, taking the activity to scutellarein as 100%” value (from here on “relative activity to each substrate … as 100%”) in data set [1] worked out at 87.9%; in data set [2] it was 1.1%; in data set [3] it was 23.8%; in data set [4], 14.0%.

Consider `O=c1cc(-c2ccc(O)c(O)c2)oc2c([C@@H]3O[C@H](CO)[C@@H](O)[C@H](O)[C@H]3O)c(O)cc(O)c12` [orientin], for which the “glucuronosyl transfer activity to glycosyl acceptor substrate (in words)” value (“glucuronosyl transfer activity” below) in data set [1], in data set [2], in data set [3] and in data set [4] was “no activity” each time.

In the case of `O=C1C[C@@H](c2ccc(O)cc2)Oc2cc(O)cc(O)c21` [naringenin], the “relative activity to each substrate … as 100%” value in data set [1] worked out at 3%; in data set [2], 6%; in data set [3], 15%; in data set [4], 2%.

For the molecule `O=C1/C(=C/c2ccc(O)c(O)c2)Oc2cc(O)cc(O)c21` [aureusidin], the figures for the “relative activity to each substrate … as 100%” value in data set [1], in data set [3] and in data set [4] were 40%, 2% and 13%, respectively. Further, the “glucuronosyl transfer activity” value in data set [2] is listed as “no activity”.

`O=c1c(-c2ccc(O)cc2)coc2cc(O)ccc12` [daidzein]: the “glucuronosyl transfer activity” value in data set [1], in data set [3] and in data set [4] was “no activity” each time. Further, the “relative activity to each substrate … as 100%” value in data set [2] worked out at 0.3%.

Regarding `Oc1ccc(C=Cc2cc(O)cc(O)c2)cc1` [resveratrol], the “glucuronosyl transfer activity” value in data set [1], in data set [2], in data set [3] and in data set [4] was “shows the activity” each time.

For `O=c1c(O)c(-c2ccc(O)cc2)oc2cc(O)cc(O)c12` [kaempferol], the “relative activity to each substrate … as 100%” value in data set [1] stood at 3%; in data set [2], 14%; in data set [3], 28%; in data set [4], 18%.

Take `O=c1c(-c2ccc(O)cc2)coc2cc(O)cc(O)c12` [genistein]: the “glucuronosyl transfer activity” value in data set [1], in data set [3] and in data set [4] was “no activity” throughout. Besides, the “relative activity to each substrate … as 100%” value in data set [2] amounted to 1%.

B1: PfUGT50: UDP-glucuronosyltransferase having the amino acid sequence of SEQ ID NO: 5, derived from Perilla frutescens a red-leaf variety (protein, listed as Perilla frutescens)
chain: MEGVILLYSSAEHLNSMLLLATFIAKHHPSIPITILSSADYSAAASVSTLPSITYRRLPPVAIPPDSIKNPVEAFFEIPRLQNPNLRVALEEISQKTRIRAFVIDFFCNSAFEVSTSLSIPTYFYVSTGSAGVCIFLYFPTTDETVATDIGDLRDFLEFPGSPIIHSSDLPQLTFFRRSNVFKHMLDTSKNMQKSSGILTNGFDAMEFRAKEALTNGLCVPNGPTPPVYLVGPLVAGSNAKKDHECLLWLDRQPSKSVVFLCFGRRGLFSGKQLREMAVALERSGYRFLWSVRNPPENRSPAEDPDLDELLPEGFLERTKDIGFVVKSWAPQKEVLSHDAVAGFVTHCGRSSILEALVNGKPMIGWPMYAEQRMNKVFMVDEMKVALPLEEEEDGFVTAVELEKRLRQLMESKTGRDVRHRVAEMKAAATAAMGENGSAVVALRKFIDSVTRD
In the case of B1, in data set [5], the reaction optimum temperature stood at 30 °C and the “activity in an acidic region” value is listed as “little activity”.

B2: S1UGT: UDP-glucuronosyltransferase having the amino acid sequence of SEQ ID NO: 11, derived from Scutellaria laeteviolacea v. yakusimensis (protein, listed as Scutellaria sp.)
chain: MEDTIVIYTTPEHLNTMAVLAKFISKHHPSVPIILISTAAESAAASIAAVPSITYHRLPLPEIPPSLTKDRVELFFELPRLSNPNLRLALQEISQKARIRAFVIDFFCNAAFEVSTSLSIPTFYYFSSGSPTATLVLHFQTLDETIPGDLKDLDDFVEIPGLPPIYSLDIPVALLTRQSLVYQSSVDISKNLRKSAGFLVNGFDALEFRAKEAIVNGLCVPNGPTPPVYFIGPLVGDVDAKAGGEEHECLRWLDTQPSKSVIFLCFGRRGVFSAEQLKETAVALENSGHRFLWSVRNPPEIMKNSDEPDLDELLPEGFLERTKDRGFVIKSWAPQKEVLSHDSVGGFVTHCGRSSISEGVWFGVPMIGWPVDAEQKLNRTVLVEEMQVALPMEEAEGGFVTAAELEKRVRELMESKVGKAVRQRVGELKCSARAAVTGNGSSLSDFKKFLLATRD
For B2, in data set [5], the reaction optimum temperature is 35 °C and the “activity in an acidic region” value is on record as “little activity”. For the same molecule, in data set [5] (an hour, pH 7.5, treated at 15 to 55° C.), the “temperature at which the enzyme was stable (residual activity)” value is ≤ 40 °C.

B3: AmUGTcg10: UDP-glucuronosyltransferase having the amino acid sequence of SEQ ID NO: 13, derived from Antirrhinum majus (protein, listed as Antirrhinum majus)
chain: MEDTIVLYASAEHLNSMLLLGKLINKHHPTISVAIISTAPNAAASSVADVAAISYQQLKPATLPSDLTKNPIELFFEIPRLHNPNLLEALEELSLKSKVRAFVIDFFCNPAFEVSTSLNIPTYFYVSSGAFGLCGFLHFPTIDETVEKDIGELNDILEIPGCPPVLSSDFPKGMFFRKSNTYKHFLDTAKNMRRAKGIVVNAFDAMEFRAKEALVNNLCVPNSPTPPVFLVGPLVGASTTTKTTNEQHECLKWLDVQPDRSVIFLCFGRRGLFSADQLKEIAIGLENSGHRFLWSVRCPPSKPNSYNTDPDLDELLPEGFLSRTETRGFVIKSWAPQKEVLSHGAVGGFVTHCGRSSILEAVSFGVPMIGWPIYAEQRMNRVFMVEEMKVALQLDEVEEGFVAAVELEKRVKELMDSKNGRAVRQRVKEMKVAAEVAVEKGGSSVVALQRFVDMVVS
In the case of B3, in data set [5], the reaction optimum temperature was 45 °C and the “activity in an acidic region” value is recorded as “little activity”.

Values taken from patent US8628938B2, “Polynucleotide encoding UDP-glucuronyl transferase” (Suntory Holdings Limited, priority 2007, dated 2014).
